The target of the experiment is T1, human OX2R (Homo sapiens, UniProt O43614).
T1 construct: host or cells: CHO-K1 (Chinese Hamster Ovary K1)
T1 sequence (O43614 1-444): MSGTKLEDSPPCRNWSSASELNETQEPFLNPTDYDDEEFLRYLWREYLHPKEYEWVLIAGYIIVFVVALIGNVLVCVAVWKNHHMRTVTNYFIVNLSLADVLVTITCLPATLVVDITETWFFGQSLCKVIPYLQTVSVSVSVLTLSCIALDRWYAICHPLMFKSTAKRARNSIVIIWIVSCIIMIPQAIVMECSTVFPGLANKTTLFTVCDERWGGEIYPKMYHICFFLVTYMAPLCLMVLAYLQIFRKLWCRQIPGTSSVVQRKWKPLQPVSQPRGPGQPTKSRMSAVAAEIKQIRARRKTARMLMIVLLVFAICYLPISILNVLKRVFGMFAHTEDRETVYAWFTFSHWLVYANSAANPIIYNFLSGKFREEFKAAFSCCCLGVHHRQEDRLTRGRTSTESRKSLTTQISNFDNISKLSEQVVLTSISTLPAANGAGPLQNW
Description: Evaluation of OX2R agonist activity (intracellular calcium, CHO-K1 cells with forced expression of human OX2R). Conditions: CHO-K1 cells expressing human OX2R; 100% = 5 µM of the reference compound; read-out: hOX2R EC50. Format: cell-based. On the procedure: Evaluation of OX2R agonist activity
Chinese Hamster Ovary K1 (CHO-K1) cells (GenScript) with forced expression of human OX2R were seeded onto a 384 well microplate (Corning) at 7500 cells/well and cultured for 24 hours. 20 µL of the loading buffer (25 mM HEPES containing 1.25 mM of Probenecid and 2.5 µg/mL of Fluo 4-AM at final concentration, Hank's balanced salt solution, 0.06% Pluronic F-127, Quenching buffer) in the Calcium Kit II (DOJINDO LABORATORIES) was added, and the microplate was allowed to stand for 30 minutes. A reference compound (Example435 of WO 2019/027058, N-[(2S,3S)-2-[[3-(3,5-difluorophenyl)-2-fluoro-phenyl]methyl]-1-(2-hydroxy-2-methylpropanoyl)pyrrolidin-3-yl]ethanesulfonamide) or the test compound was added in 10 µL, and changes in intracellular calcium ion concentration were measured using FDSS7000EX (Hamamatsu Photonics K.K.) as a fluorescence intensity ratio obtained upon dual wavelength excitation at 480 nm and 540 nm. Note that the reference compound or test compound was dissolved in DMSO (final concentration of DMSO was 0.5%) and diluted with an assay buffer (20 mM HEPES, Hank's balanced salt solution, 0.1% BSA). The difference between the maximum and minimum fluorescence values between 5 and 7 seconds after the addition of the test compound or reference compound was used as the indicator. The value of wells to which the assay buffer containing no test compound was added was defined as 0%, and the value of wells to which 5 µM of the reference compound was added was defined as 100%. The 50% effective concentration (EC50 value) was determined from the values obtained when various concentrations of the test compound were added. […]
(Calcium flux is commonly read through the fluorescence of an indicator in the cells.)
As to `CS(=O)(=O)N[C@@H]1[C@H](Cc2cc(F)cc(-c3ccccc3)c2F)N(C(=O)[C@H](O)C(F)(F)F)C2CC1(F)C2` [Example 79, N-{(3S,4R)-3-[(2,5-Difluoro[biphenyl]-3-yl)methyl]-5-fluoro-2-[(2S)-3,3,3-trifluoro-2-hydroxypropanoyl]-2-azabicyclo[3.1.1]heptan-4-yl}methanesulfonamide], the EC50 (in general, the concentration that produces a half-maximal response) is 0.04 µM.

`CS(=O)(=O)NC1C(Cc2cccc(-c3cc(F)cc(F)c3)c2F)N(C(=O)C2CC2)C2CC1(F)C2` (single isomer, unassigned) [Example 36, N-{(3S,4R)-2-(Cyclopropylcarbonyl)-5-fluoro-3-[(2,3',5'-trifluoro[biphenyl]-3-yl)methyl]-2-azabicyclo[3.1.1]heptan-4-yl}methanesulfonamide or N-{(3R,4S)-2-(cyclopropylcarbonyl)-5-fluoro-3-[(2,3',5'-trifluoro[biphenyl]-3-yl)methyl]-2-azabicyclo[3.1.1]heptan-4-yl}methanesulfonamide]: the 50% effective concentration (EC50) worked out at 0.062 µM.

Regarding `CCS(=O)(=O)N[C@@H]1[C@H](Cc2cccc(-c3ccccc3)c2F)N(C(=O)[C@@H](C)O)C2CC1(F)C2` (single isomer, unassigned) [Example 83], the EC50 was found to be 0.019 µM.

Consider `CC(C)(O)C(=O)N1C2CC(C2)[C@H](NS(C)(=O)=O)[C@@H]1Cc1cccc(-c2cc(F)cc(F)c2)c1F` (single isomer, unassigned) [Example 1], for which the concentration for a half-maximal effect (EC50) stood at 0.067 µM.

Turning to `CS(=O)(=O)N[C@H]1C2CC(C2)N(C(=O)CO)[C@H]1Cc1cccc(-c2cc(F)cc(F)c2)c1F` [Example 34, N-{(3S,4S)-2-(Hydroxyacetyl)-3-[(2,3',5'-trifluoro[biphenyl]-3-yl)methyl]-2-azabicyclo[3.1.1]heptan-4-yl}methanesulfonamide], the half-maximal effective concentration (EC50) was 0.289 µM.

Turning to `CS(=O)(=O)N[C@@H]1[C@H](Cc2cccc(-c3ccccc3)c2F)N(C(=O)[C@H]2CCO2)C2CC1(F)C2` [Example 70, N-{(3S,4R)-5-Fluoro-3-[(2-fluoro[biphenyl]-3-yl)methyl]-2-[(2R)-oxetan-2-ylcarbonyl]-2-azabicyclo[3.1.1]heptan-4-yl}methanesulfonamide], the concentration giving a half-maximal response (EC50) was found to be 0.026 µM.

With `CS(=O)(=O)N[C@H]1C2CC(C2)N(C(=O)[C@H](O)C2CC2)[C@H]1Cc1cccc(-c2ccccc2)c1F` [Example 64, N-{(3S,4S)-2-[(2R)-2-Cyclopropyl-2-hydroxyacetyl]-3-[(2-fluoro[biphenyl]-3-yl)methyl]-2-azabicyclo[3.1.1]heptan-4-yl}methanesulfonamide], the half-maximal effective concentration (EC50) was determined as 0.041 µM.

For the compound `C[C@@H](O)C(=O)N1C2CC(C2)[C@H](NS(C)(=O)=O)[C@@H]1Cc1cccc(-c2csc(Cl)c2)c1F` [Example 68, N-{(3S,4S)-3-[3-(5-Chlorothiophen-3-yl)-2-fluorobenzyl]-2-[(2R)-2-hydroxypropanoyl]-2-azabicyclo[3.1.1]heptan-4-yl}methanesulfonamide], the EC50 came to 0.037 µM.

With `CS(=O)(=O)N[C@H]1C2CC(C2)N(C(=O)C2(CO)CC2)[C@H]1Cc1cccc(-c2ccccc2)c1F` [Example 73, N-[(3S,4S)-3-[(2-Fluoro[biphenyl]-3-yl)methyl]-2-{[1-(hydroxymethyl)cyclopropyl]carbonyl}-2-azabicyclo[3.1.1]heptan-4-yl]methanesulfonamide], the EC50 was 0.05 µM.

With `COc1cccc(-c2cccc(C[C@H]3[C@@H](NS(C)(=O)=O)C4CC(C4)N3C(=O)C(C)(C)O)c2F)c1` (stereo in doubt) [Example 14, N-[(3S,4S)-3-[(2-Fluoro-3'-methoxy[biphenyl]-3-yl)methyl]-2-(2-hydroxy-2-methylpropanoyl)-2-azabicyclo[3.1.1]heptan-4-yl]methanesulfonamide], the 50% effective concentration (EC50) was 0.298 µM.

Regarding `CC(C)(O)C(=O)N1C2CC(C2)C(NS(C)(=O)=O)C1Cc1cccc(-c2cc(F)cc(F)c2)c1` (single isomer, unassigned) [Example 13, N-{3-[(3',5'-Difluoro[biphenyl]-3-yl)methyl]-2-(2-hydroxy-2-methylpropanoyl)-2-azabicyclo[3.1.1]heptan-4-yl}methanesulfonamide], the concentration giving a half-maximal response (EC50) came out at 1.14 µM.

For `CCS(=O)(=O)N[C@H]1C2CC(C2)N(C(=O)C(C)(C)O)[C@H]1Cc1cccc(-c2cc(F)cc(F)c2)c1F` (single isomer, unassigned) [Example 3], the 50% effective concentration (EC50) is 0.092 µM.

As to `CC(C)(O)C(=O)N1C2CC(C2)[C@H](NS(C)(=O)=O)[C@@H]1Cc1cccc(-c2cccc(C(F)(F)F)c2)c1F` [Example 18, N-[(3S,4S)-3-{[2-Fluoro-3'-(trifluoromethyl)[biphenyl]-3-yl]methyl}-2-(2-hydroxy-2-methylpropanoyl)-2-azabicyclo[3.1.1]heptan-4-yl]methanesulfonamide], the EC50 came out at 0.784 µM.

Take `CCS(=O)(=O)NC1C2CC(C2)N(C(=O)[C@@H](C)O)C1Cc1cc(F)cc(-c2ccccc2)c1F` (single isomer, unassigned) [Example 81]: the concentration for a half-maximal effect (EC50) turned out to be 0.043 µM.

For `C[C@@H](O)C(=O)N1C2CC(F)(C2)C(NS(C)(=O)=O)C1Cc1cccc(-c2cc(F)cc(F)c2)c1F` (single isomer, unassigned) [Example 23, N-{(3S,4R)-5-Fluoro-2-[(2R)-2-hydroxypropanoyl]-3-[(2,3',5'-trifluoro[biphenyl]-3-yl)methyl]-2-azabicyclo[3.1.1]heptan-4-yl}methanesulfonamide or N-{(3R,4S)-5-fluoro-2-[(2R)-2-hydroxypropanoyl]-3-[(2,3',5'-trifluoro[biphenyl]-3-yl)methyl]-2-azabicyclo[3.1.1]heptan-4-yl}methanesulfonamide], the EC50 is 0.034 µM.

In the case of `Cc1cccc(-c2cccc(C[C@H]3[C@@H](NS(C)(=O)=O)C4CC(C4)N3C(=O)C(C)(C)O)c2F)c1` [Example 11, N-[(3S,4S)-3-[(2-Fluoro-3'-methyl[biphenyl]-3-yl)methyl]-2-(2-hydroxy-2-methylpropanoyl)-2-azabicyclo[3.1.1]heptan-4-yl]methanesulfonamide], the 50% effective concentration (EC50) stood at 0.06 µM.

As for `CS(=O)(=O)N[C@H]1C2CC(C2)N(C(=O)C2(F)CC2)[C@H]1Cc1cccc(-c2cc(F)cc(F)c2)c1F` [Example 19, N-{(3S,4S)-2-[(1-Fluorocyclopropyl)carbonyl]-3-[(2,3',5'-trifluoro[biphenyl]-3-yl)methyl]-2-azabicyclo[3.1.1]heptan-4-yl}methanesulfonamide], the EC50 was found to be 0.38 µM.

Turning to `C[C@@H](O)C(=O)N1C2CC(C2)[C@H](NS(C)(=O)=O)[C@@H]1Cc1cccc(-c2cc(F)cc(C#N)c2)c1F` [Example 31, N-{(3S,4S)-3-[(3'-Cyano-2,5'-difluoro[biphenyl]-3-yl)methyl]-2-[(2R)-2-hydroxypropanoyl]-2-azabicyclo[3.1.1]heptan-4-yl}methanesulfonamide], the 50% effective concentration (EC50) was 0.189 µM.

Turning to `COCC(=O)N1C2CC(C2)[C@H](NS(C)(=O)=O)[C@@H]1Cc1cccc(-c2cc(F)cc(F)c2)c1F` [Example 28, N-{(3S,4S)-2-(Methoxyacetyl)-3-[(2,3',5'-trifluoro[biphenyl]-3-yl)methyl]-2-azabicyclo[3.1.1]heptan-4-yl}methanesulfonamide], the half-maximal effective concentration (EC50) came to 0.247 µM.

On to `O=C([C@H]1C[C@H]1F)N1C2CC(C2)[C@H](NS(=O)(=O)C2CC2)[C@@H]1Cc1cccc(-c2ccccc2)c1F` [Example 45, N-[(3S,4S)-3-[(2-Fluoro[biphenyl]-3-yl)methyl]-2-{[(1R,2R)-2-fluorocyclopropyl]carbonyl}-2-azabicyclo[3.1.1]heptan-4-yl]cyclopropanesulfonamide], for which the EC50 was 0.115 µM.

In the case of `C[C@@H](O)C(=O)N1C2CC(C2)[C@H](NS(C)(=O)=O)[C@@H]1Cc1cccc(-c2cc(F)cc(F)c2)c1F` [Example 16, N-{(3S,4S)-2-[(2R)-2-Hydroxypropanoyl]-3-[(2,3',5'-trifluoro[biphenyl]-3-yl)methyl]-2-azabicyclo[3.1.1]heptan-4-yl}methanesulfonamide], the EC50 is 0.011 µM.

Take `C[C@H](O)CC(=O)N1C2CC(C2)[C@H](NS(C)(=O)=O)[C@@H]1Cc1cccc(-c2ccccc2)c1F` (single isomer, unassigned) [Example 86]: the EC50 stood at 0.112 µM.

`CS(=O)(=O)N[C@@H]1[C@H](Cc2cccc(-c3ccccc3)c2F)N(C(=O)c2ccon2)C2CC1(F)C2` (single isomer, unassigned) [Example 84]: the EC50 was found to be 0.231 µM.

For the origin of these results see patent EP4635944A1, “2-AZABICYCLO[3.1.1]HEPTANE COMPOUND” (Daiichi Sankyo Company, Limited, priority 2022, dated 2024).
